Source: ChEMBL document CHEMBL1201862, “PubChem BioAssay data set” (2004)
The source made the active and inactive calls.

Experiments:
Protein skinhead-1 = molecular target: T1, Protein skinhead-1 (Caenorhabditis elegans, UniProt P34707); type: functional
T1 sequence (P34707 whole entry): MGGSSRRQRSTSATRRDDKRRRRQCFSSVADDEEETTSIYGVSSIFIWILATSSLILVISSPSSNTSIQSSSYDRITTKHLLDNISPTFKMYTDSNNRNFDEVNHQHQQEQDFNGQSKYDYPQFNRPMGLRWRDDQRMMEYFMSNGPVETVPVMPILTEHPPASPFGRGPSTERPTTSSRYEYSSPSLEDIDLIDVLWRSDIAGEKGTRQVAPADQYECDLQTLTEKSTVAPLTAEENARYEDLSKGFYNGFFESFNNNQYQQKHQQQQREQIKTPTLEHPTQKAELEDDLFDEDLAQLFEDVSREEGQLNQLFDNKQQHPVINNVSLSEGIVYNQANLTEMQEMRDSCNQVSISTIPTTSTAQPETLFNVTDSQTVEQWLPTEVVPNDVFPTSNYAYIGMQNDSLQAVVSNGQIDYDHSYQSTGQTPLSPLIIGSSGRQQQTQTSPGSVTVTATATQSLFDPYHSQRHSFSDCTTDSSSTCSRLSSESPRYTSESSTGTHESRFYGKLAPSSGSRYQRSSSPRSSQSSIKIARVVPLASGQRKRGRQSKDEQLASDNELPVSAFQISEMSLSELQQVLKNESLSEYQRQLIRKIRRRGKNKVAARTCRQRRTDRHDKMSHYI

[1] = inhibitors of firefly luciferase expression or activity, dose response, H4 neuroglioma cells, luminescence (AID 1990); type: functional, cell-based
H9c2 = assay: cells; type: functional, cell-based; conditions: Rattus norvegicus, H9c2, Myocardium;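 note: confirmatory concentration-response retest of ultra-high-throughput screening hits for modulation of myocardial damage; cell death induced by hydrogen peroxide oxidative stress; compound pretreatment for 60 min then peroxide exposure for 2 h; potency is for protecting the cells against peroxide damage rather than for killing them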
[2] = inhibitors of SNCA 5'UTR-driven reporter translation, confirmation, H4 neuroglioma cells, luminescence (AID 1988); type: functional, cell-based
[3] = Luminescence Cell-Based Dose Response HTS to Identify Inhibitors of 5'UTR Stem-Loop Driven Prion Protein mRNA Translation in H4 Neuroglioblastoma Cells. [Related pubchem assays: 1827 (Project Summary), 1813 (Primary HTS)]; type: functional
[4] = molecular target: T2, Replicative DNA helicase DnaB (Mycobacterium tuberculosis, UniProt P9WMR3); assay: DnaB intein splicing inhibitors, dose response, biochemical, cell-free fluorescence (AID 449749); type: functional
T2 sequence (P9WMR3 whole entry): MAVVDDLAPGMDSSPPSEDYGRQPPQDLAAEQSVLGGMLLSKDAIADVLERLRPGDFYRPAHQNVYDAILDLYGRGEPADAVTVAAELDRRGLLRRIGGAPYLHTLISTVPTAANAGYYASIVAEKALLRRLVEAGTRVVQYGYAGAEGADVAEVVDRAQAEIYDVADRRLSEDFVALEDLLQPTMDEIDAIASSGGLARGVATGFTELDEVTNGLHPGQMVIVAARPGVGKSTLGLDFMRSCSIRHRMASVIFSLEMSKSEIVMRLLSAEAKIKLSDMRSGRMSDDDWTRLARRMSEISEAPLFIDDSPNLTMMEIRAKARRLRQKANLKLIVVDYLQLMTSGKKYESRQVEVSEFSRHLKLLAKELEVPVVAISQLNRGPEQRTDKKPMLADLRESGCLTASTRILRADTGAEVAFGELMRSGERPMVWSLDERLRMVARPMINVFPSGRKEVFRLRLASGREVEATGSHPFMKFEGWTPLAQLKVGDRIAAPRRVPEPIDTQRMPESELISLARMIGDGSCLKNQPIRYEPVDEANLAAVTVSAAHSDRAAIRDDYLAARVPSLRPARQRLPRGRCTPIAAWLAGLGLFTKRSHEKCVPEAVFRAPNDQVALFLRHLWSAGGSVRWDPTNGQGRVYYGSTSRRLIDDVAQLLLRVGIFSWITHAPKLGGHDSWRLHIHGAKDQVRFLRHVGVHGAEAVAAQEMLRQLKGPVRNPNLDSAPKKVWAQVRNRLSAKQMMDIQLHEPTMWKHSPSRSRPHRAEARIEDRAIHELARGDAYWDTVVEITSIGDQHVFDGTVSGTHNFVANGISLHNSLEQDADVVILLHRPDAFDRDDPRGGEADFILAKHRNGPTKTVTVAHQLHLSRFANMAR

Protein RecA = molecular target: T3, Protein RecA (Mycobacterium tuberculosis, UniProt P9WHJ3); assay: Fluorescence Cell-Free Homogeneous Dose Retest to Identify Inhibitors of RecA-Intein Splicing Activity. [Related pubchem assays (depositor defined):AID2097, AID2223, AID489010, AID492950]; type: functional
T3 sequence (P9WHJ3 whole entry): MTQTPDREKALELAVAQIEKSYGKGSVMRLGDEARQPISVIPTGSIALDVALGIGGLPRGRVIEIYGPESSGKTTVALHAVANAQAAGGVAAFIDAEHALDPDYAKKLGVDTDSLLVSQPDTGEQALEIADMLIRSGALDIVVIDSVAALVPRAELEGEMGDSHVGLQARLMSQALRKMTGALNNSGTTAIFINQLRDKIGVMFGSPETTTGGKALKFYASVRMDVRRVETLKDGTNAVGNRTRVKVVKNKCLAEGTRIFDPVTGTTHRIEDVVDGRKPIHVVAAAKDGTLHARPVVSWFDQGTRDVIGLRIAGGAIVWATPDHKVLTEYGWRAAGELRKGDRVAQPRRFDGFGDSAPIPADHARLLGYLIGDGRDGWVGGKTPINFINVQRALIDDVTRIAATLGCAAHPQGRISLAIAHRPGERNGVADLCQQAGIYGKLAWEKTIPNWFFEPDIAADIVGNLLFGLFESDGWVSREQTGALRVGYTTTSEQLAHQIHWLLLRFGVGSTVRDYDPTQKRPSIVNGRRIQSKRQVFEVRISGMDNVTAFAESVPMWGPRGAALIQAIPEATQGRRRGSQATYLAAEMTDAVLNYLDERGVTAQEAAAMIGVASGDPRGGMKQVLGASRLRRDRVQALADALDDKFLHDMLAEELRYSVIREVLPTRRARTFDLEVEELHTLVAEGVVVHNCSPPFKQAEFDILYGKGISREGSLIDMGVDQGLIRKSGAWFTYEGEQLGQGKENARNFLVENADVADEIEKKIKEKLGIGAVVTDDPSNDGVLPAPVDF

Cytochrome P450 2C9 = Cytochrome P450 2C9 (Homo sapiens, UniProt P11712)
Sequence of Cytochrome P450 2C9 (P11712 whole entry): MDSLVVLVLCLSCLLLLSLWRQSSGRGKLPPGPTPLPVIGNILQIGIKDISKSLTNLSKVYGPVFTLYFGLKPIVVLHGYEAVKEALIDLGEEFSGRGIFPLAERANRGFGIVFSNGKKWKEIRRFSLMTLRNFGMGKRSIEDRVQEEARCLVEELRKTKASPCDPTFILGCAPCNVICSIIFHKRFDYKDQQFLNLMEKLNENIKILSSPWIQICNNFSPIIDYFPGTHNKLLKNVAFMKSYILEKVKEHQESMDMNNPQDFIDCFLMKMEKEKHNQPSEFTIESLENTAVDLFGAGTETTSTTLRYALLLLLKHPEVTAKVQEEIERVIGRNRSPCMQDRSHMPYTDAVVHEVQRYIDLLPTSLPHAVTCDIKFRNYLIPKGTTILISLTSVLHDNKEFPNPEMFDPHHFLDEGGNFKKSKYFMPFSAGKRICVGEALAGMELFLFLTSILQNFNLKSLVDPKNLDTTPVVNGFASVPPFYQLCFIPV

Cytochrome P450 3A4 = Cytochrome P450 3A4 (Homo sapiens, UniProt P08684);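 note: CYP3A4 tested as one member of a cytochrome P450 panel screen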
Sequence of Cytochrome P450 3A4 (P08684 whole entry): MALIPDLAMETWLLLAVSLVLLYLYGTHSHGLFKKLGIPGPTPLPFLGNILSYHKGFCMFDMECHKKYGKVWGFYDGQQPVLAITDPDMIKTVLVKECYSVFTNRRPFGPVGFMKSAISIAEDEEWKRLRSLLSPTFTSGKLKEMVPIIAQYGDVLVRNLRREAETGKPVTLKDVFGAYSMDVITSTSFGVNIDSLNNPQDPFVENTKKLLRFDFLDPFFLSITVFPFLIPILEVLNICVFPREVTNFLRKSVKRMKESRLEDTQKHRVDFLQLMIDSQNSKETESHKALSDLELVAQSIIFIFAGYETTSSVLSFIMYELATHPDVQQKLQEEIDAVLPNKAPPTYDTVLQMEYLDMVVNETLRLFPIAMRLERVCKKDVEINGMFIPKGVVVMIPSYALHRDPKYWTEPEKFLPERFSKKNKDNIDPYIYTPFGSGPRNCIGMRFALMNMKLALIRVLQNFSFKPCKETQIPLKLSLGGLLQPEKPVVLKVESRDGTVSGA

[5] = molecular target: T4, Corticotropin-releasing factor receptor 2/Corticotropin-releasing factor-binding protein (Homo sapiens, UniProt P24387+Q13324); assay: activators of CRF receptor 2 with binding protein – uHTS hits, confirmation (AID 602473); type: functional; conditions: read-out: EC50_Mean
T4 sequence (Q13324 whole entry): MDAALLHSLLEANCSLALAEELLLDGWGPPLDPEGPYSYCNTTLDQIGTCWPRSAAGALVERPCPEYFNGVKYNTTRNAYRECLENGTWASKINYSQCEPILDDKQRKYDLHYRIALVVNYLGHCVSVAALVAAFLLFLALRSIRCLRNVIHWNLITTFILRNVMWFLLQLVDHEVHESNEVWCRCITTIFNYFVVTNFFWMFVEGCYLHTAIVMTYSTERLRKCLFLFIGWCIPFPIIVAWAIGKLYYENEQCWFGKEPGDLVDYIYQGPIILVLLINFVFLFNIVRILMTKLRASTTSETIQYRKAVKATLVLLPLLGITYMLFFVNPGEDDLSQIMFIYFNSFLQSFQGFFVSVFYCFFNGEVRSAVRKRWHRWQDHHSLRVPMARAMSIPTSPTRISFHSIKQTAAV
T4 sequence (P24387 whole entry): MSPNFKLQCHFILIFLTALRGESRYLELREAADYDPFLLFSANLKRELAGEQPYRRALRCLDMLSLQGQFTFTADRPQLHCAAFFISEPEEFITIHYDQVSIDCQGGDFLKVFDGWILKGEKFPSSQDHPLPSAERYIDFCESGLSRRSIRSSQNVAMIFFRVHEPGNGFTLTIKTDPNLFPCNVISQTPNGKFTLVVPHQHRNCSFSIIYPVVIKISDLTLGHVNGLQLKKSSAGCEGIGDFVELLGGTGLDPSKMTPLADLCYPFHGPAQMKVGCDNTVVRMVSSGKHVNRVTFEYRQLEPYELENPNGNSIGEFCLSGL

[6] = molecular target: T4, Corticotropin-releasing factor receptor 2/Corticotropin-releasing factor-binding protein; assay: Dose Response confirmation of uHTS hits for small molecule antagonists of the CRF-binding protein and CRF-R2 receptor complex.; type: functional; conditions: read-out: IC50_Mean
[7] = molecular target: T5, Heat shock factor protein 1 (Mus musculus, UniProt P38532); assay: inhibition of MG132-induced HSE-luciferase signal, confirmation, cell-based, NIH3T3, luminescence, dose retest (AID 2382); type: functional;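 note: NIH3T3 fibroblasts with HSF1-driven luciferase reporter stressed by proteasome inhibitor MG132; luminescence from HSF1-driven luciferase expression after 8 hours of MG132 stress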
T5 sequence (P38532 whole entry): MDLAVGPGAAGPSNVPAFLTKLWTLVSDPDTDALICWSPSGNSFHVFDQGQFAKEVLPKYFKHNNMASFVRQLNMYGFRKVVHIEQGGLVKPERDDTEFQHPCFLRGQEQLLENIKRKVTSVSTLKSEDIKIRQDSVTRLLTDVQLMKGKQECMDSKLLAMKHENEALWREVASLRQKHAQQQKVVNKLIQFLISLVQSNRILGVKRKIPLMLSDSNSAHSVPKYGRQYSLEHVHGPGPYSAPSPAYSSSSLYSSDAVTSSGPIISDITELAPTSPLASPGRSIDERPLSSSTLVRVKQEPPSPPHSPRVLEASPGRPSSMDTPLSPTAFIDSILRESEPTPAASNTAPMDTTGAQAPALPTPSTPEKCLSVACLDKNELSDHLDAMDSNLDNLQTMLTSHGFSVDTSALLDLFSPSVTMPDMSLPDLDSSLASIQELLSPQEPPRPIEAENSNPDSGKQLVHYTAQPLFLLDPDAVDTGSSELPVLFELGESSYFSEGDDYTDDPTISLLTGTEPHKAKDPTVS

For `Cc1cccc(NC2=NC(=O)/C(=C/c3cccn3C)S2)c1C`, the IC50 (Protein skinhead-1) was > 100 µM (inactive).

With `CC(C)OC(=O)CSc1nnnn1-c1ccc2c(c1)OCCO2` the IC50 (Protein skinhead-1) was > 100 µM (inactive).

With `C[C@](N)(CCP(=O)(O)O)C(=O)O` the IC50 (Protein skinhead-1) was > 100 µM (inactive).

With `C=CCc1ccccc1OCC(=O)N/N=C/c1ccc(OC(C)=O)cc1OC(C)=O` the EC50 [1] was 12.3 µM (active), the IC50 (H9c2) was > 79 µM (inactive) and the EC50 [2] was 10.6 µM (active). The EC50 [3] was 14.6 µM (active).

With `O=C1C(=C2SCCCS2)CC/C1=C\c1ccc(F)cc1` the EC50 [1] was 0.238 µM (active), the EC50 [2] was 0.116 µM (active) and the EC50 [3] was 4.36 µM (active).

For `O=C(Nc1ccc(OC(=O)N2CCCC2)cc1)N1CCOCC1`, the IC50 (Protein skinhead-1) was > 100 µM (inactive).

In the case of `Cc1c(OCC(=O)Nc2cccnc2)ccc2c3c(c(=O)oc12)CCC3`, the EC50 [2] is reported as > 120 µM (not active), the AC50 [4] is reported as 2.65 µM (active) and the EC50 [3] is reported as > 120 µM (not active). The EC50 (Protein RecA) was 2.26 µM (active).

With `COc1ccc(Cc2c(-c3ccco3)nc3c(C)cc(Br)cn23)c(C)c1` the IC50 (Protein skinhead-1) was > 100 µM (inactive).

With `COc1cc2c(cc1OC)C(C)N(C(=O)c1cc(C)on1)CC2` (stereo unspecified) the EC50 [1] was 4.12 µM (active), the EC50 [2] was 0.415 µM (active) and the EC50 [3] was 3.88 µM (active).

With `CC(C)NC(=O)COC(=O)c1ccc(S(=O)(=O)N2CCCC2)cc1` the EC50 [1] was > 120 µM (not active), the EC50 [2] was > 120 µM (not active) and the EC50 [3] was > 120 µM (not active).

For `COc1ccc(OC)c(Nc2nc(-c3cccc([N+](=O)[O-])c3)nc3ccccc23)c1`, the EC50 [1] was > 120 µM (not active), the AC50 (Cytochrome P450 2C9) was 0.355 µM (inconclusive) and the EC50 [2] was 69.3 µM (active). The EC50 [3] was 21.7 µM (active) and the AC50 (Cytochrome P450 3A4) was 2.82 µM (inconclusive).

For `Cc1nc2nc(CSc3nc4ccccc4s3)cc(O)n2n1`, the IC50 (Protein skinhead-1) was > 100 µM (inactive).

In the case of `O=C(CSc1nc2ccccc2c(=O)n1Cc1ccco1)N1CCCC1`, the EC50 [1] is reported as 20.3 µM (active), the EC50 [2] is reported as > 120 µM (not active) and the EC50 [3] is reported as > 120 µM (not active).

With `O=C(Nc1ccc(S(=O)(=O)NC2CCCCC2)cc1)c1ccco1` the EC50 [1] was 26.7 µM (active), the EC50 [2] was > 120 µM (not active) and the EC50 [3] was > 120 µM (not active).

With `CC1CCc2c(C(=O)Nc3ccccn3)csc2C1` (stereo unspecified) the EC50 [5] was > 53 µM (inactive) and the IC50 [6] was > 47.1 µM (inactive).

In the case of `C=CCN(c1ccccc1)S(=O)(=O)c1cccc(C(=O)OCC(=O)NCCOC)c1`, the EC50 [5] is reported as > 53 µM (inactive) and the IC50 [6] is reported as > 47.1 µM (inactive).

With `O=C(Cc1c(O)c2ccccc2[nH]c1=O)OC1CCCCC1` the EC50 [5] was > 53 µM (inactive) and the IC50 [6] was > 47.1 µM (inactive).

With `CCn1c(CCC(=O)Nc2nc3c(s2)CCCC3)nc2cc(S(=O)(=O)N(C)C)ccc21` the IC50 (Protein skinhead-1) was > 100 µM (inactive).

With `O=C(NCc1ccc(F)cc1)C(=O)NCC1OCCN1C(=O)c1ccc(Cl)cc1` (stereo unspecified) the EC50 [5] was > 53 µM (inactive) and the IC50 [6] was > 47.1 µM (inactive).

For `CCCOc1cc(C)c(S(=O)(=O)NCc2cccs2)cc1C`, the IC50 (Protein skinhead-1) was > 100 µM (inactive).

In the case of `Cc1cc(/C(O)=C(/C([S-])=Nc2ccccc2)[n+]2ccccc2)c(C)n1-c1ccccc1`, the EC50 [7] is reported as 2.53 µM (active), the EC50 [1] is reported as > 120 µM (not active) and the EC50 [2] is reported as > 120 µM (not active). The EC50 [3] was > 120 µM (not active).

For `Clc1ccc(N2CCN(c3ccnc(Cl)n3)CC2)cc1`, the IC50 (Protein skinhead-1) was 26.3 µM (active).

With `COc1ccccc1NC(=O)CN1C(=O)CCS(=O)(=O)c2ccccc21` the EC50 [5] was > 53 µM (inactive) and the IC50 [6] was > 47.1 µM (inactive).
